Data: ChEMBL document CHEMBL1201862, “PubChem BioAssay data set” (2004)
Activity calls are given as the source filed them. Cut-off read from the data, not from the text of the source, for most assays here: actives have a measured EC50 and inactives only a lower limit.

How the values were obtained:
[1] = biological target: Delta-type opioid receptor (Homo sapiens, UniProt P41143); assay: HTS Image-Based Screen for Antagonists of the DOR Receptor. [Related pubchem assays (depositor defined):AID1777, AID1785, AID1786, AID2133]; format: functional;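 note: U2OS cells expressing DOR stimulated with 100 nM SNC80 agonist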
[2] = biological target: Beta-galactosidase (Escherichia coli, UniProt Q8VNN2); format: functional
[3] = HepG2 cell cytotoxicity, dose response, cytotoxicity control, plate reader, cherry-pick, antagonist series (AID 743416); format: functional, cell-based
[4] = biological target: T1, Heat shock factor protein 1 (Mus musculus, UniProt P38532); assay: inhibition of MG132-induced HSE-luciferase signal, confirmation, cell-based, NIH3T3, luminescence, dose retest (AID 2382); format: functional;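 note: NIH3T3 fibroblasts with HSF1-driven luciferase reporter stressed by proteasome inhibitor MG132; luminescence from HSF1-driven luciferase expression after 8 hours of MG132 stress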
T1 sequence (P38532 whole entry): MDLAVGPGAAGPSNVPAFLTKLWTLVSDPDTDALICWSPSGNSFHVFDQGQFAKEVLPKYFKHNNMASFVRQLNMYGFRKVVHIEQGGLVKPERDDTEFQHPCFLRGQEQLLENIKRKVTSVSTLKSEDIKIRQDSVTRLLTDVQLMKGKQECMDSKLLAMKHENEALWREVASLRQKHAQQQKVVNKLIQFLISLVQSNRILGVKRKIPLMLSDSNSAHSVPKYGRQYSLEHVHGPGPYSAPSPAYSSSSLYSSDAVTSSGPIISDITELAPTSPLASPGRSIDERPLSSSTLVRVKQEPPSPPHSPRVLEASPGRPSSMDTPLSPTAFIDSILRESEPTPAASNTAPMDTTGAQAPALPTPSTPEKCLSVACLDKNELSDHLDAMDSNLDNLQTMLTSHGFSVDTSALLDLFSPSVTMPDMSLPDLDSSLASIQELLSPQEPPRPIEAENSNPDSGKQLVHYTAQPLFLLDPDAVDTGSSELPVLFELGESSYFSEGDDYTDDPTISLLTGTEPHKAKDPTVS

[5] = cytotoxicity toward NIH3T3 fibroblasts, dose response, counter-screen, cell-based, ATP luminescence, mouse fibroblasts (AID 2010); format: functional;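 note: cells exposed to compound for about 90 hours before reading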
[6] = biological target: T2, Streptokinase A (Streptococcus pyogenes serotype M1, UniProt P10520); assay: S. pyogenes streptokinase expression inhibitors, potency, dose response, plasminogen activation absorbance, OD405 (AID 1914); format: functional, Streptococcus pyogenes M1 GAS;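 note: secreted streptokinase activity via plasminogen activation per viability signal from cell pellet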
T2 sequence (P10520 whole entry): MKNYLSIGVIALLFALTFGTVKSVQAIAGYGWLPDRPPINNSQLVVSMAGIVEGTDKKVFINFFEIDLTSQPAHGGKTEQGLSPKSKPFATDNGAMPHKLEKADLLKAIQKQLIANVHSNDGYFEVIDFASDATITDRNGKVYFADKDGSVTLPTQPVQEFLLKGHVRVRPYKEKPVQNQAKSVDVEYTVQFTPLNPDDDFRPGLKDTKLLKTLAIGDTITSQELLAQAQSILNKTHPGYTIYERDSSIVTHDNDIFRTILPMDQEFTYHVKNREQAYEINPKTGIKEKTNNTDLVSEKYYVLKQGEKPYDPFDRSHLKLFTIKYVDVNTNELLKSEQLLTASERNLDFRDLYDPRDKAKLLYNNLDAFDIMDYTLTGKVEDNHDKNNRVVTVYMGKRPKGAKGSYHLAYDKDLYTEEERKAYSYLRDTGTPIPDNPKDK

[7] = biological target: T3, Serine/threonine-protein phosphatase (Candida dubliniensis (strain CD36 / CBS 7987 / NCPF 3949 / NRRLY-17841) (Yeast), UniProt B9W6M3); assay: calcineurin pathway inhibitors in yeast reporter, dose response, S. cerevisiae, CDRE-lacZ, luminescence, secondary (AID 2388); format: functional, cell-based;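 note: yeast reporter cells carrying a calcineurin-responsive lacZ construct stimulated with calcium chloride; luminescent beta-galactosidase reporter signal in whole cells rather than isolated phosphatase activity; potency for inhibition where a drop in reporter signal means calcineurin blockade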
T3 sequence (B9W6M3 whole entry): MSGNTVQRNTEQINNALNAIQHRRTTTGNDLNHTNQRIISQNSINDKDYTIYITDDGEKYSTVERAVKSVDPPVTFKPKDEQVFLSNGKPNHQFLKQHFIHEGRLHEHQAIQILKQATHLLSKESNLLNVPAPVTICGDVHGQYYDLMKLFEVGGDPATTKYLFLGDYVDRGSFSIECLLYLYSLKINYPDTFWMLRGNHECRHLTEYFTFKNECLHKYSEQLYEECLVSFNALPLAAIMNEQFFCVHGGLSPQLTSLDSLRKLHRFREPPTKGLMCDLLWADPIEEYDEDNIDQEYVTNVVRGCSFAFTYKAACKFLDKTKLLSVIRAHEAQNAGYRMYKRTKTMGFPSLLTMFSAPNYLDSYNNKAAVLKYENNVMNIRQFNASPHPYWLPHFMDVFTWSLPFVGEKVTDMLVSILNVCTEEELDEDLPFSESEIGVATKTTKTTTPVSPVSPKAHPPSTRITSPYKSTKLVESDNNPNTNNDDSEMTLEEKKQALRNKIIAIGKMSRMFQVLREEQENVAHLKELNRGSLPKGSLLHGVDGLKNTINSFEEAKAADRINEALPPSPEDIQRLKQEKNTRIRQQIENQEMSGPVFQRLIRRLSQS

[8] = HeLa cell cytotoxicity, dose response, cytotoxicity control for MgcRacGAP inhibitor project (AID 624300); format: functional
[9] = biological target: T4, Caspase-3 (Homo sapiens, UniProt P42574); assay: SAR Analysis of small molecule inhibitors of Sentrin-specific proteases (SENPs) using a Caspase-3 Selectivity assay. [Related pubchem assays (depositor defined):AID2540, AID2599, AID434973, AID489001]; format: functional
T4 sequence (P42574 whole entry): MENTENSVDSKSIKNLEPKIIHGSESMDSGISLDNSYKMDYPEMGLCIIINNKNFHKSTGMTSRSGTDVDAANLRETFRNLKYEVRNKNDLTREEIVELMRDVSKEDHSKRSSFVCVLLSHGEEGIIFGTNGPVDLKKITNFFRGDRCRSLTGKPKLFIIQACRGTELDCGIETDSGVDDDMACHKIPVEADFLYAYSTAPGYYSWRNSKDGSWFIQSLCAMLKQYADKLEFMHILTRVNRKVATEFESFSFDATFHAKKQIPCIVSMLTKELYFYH

Chain of Beta-galactosidase (Q8VNN2 whole entry): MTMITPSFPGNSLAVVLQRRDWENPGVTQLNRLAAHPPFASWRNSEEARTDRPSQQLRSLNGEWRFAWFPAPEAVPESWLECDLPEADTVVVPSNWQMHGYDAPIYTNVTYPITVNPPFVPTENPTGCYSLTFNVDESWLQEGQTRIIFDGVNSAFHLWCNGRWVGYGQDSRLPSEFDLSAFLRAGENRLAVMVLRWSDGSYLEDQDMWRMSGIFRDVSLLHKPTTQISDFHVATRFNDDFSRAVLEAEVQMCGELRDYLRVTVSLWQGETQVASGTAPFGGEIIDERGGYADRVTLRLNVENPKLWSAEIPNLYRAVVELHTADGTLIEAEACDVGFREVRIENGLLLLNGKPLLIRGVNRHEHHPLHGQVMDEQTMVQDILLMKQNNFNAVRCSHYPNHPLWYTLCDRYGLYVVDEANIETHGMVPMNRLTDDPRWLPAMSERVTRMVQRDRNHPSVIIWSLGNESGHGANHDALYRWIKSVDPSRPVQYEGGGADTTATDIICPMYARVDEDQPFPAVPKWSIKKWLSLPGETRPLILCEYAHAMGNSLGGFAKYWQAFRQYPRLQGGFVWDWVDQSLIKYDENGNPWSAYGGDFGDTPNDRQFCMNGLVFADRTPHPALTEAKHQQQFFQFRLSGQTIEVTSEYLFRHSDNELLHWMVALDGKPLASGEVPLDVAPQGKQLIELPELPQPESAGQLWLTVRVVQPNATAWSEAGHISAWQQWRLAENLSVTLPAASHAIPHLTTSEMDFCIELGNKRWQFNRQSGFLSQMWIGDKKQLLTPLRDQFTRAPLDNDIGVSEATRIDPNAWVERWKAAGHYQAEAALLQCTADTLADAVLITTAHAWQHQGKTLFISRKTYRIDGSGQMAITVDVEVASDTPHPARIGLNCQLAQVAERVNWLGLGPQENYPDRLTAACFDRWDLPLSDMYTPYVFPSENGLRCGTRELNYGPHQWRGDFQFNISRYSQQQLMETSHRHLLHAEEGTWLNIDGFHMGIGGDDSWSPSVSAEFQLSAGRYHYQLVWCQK
Chain of Delta-type opioid receptor (P41143 whole entry): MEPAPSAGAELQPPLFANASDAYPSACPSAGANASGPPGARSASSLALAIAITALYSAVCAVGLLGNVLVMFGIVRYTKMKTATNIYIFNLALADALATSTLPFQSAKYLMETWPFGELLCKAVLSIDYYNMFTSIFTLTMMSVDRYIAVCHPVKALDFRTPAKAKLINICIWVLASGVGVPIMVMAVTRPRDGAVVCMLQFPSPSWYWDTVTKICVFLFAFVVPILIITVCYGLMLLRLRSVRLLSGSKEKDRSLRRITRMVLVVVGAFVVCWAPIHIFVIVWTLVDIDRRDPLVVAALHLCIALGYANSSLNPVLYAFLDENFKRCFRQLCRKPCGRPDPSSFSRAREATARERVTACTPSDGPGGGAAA

With COc1cc(NC(=O)Cn2ncc(Cl)c(Cl)c2=O)c(C)cc1[N+](=O)[O-] the IC50 [1] was > 32 µM (inactive), the EC50 [2] was > 31.5 µM (inactive) and the AC50 [3] was 9.1 µM (active). The EC50 [4] was 4.33 µM (active) and the EC50 [5] was 3.17 µM (active).

For Cc1ccc(C)c(S(=O)(=O)N2CCN(Cc3ccc(O)c4ncccc34)CC2)c1, the EC50 [6] was > 150 µM (not active) and the EC50 [7] was 36 µM (active).

For Oc1ccc(/C=N\Nc2cc(N3CCOCC3)nc(N3CCOCC3)n2)c(O)c1, the CC50 [8] was 100 µM (active) and the IC50 [9] was > 99 µM (inactive).
